# pIC50: −log10 of the molar value.
# Molecular target: rhCathepsin C/DPP1 (Homo sapiens (Human), UniProt P53634)
# Experiment: Test for inhibition of DPP1 enzyme activity
# Type: biochemical
# Conditions: recombinant human cathepsin C/DPP1; substrate Gly-Arg-AMC
# Procedure: Recombinant human cathepsin, rhCathepsin C/DPP1, purchased from R&D systems
# Gly-Arg-AMC (hydrOCHloride), purchased from Cayman chemical
# • 1) Preparation and handling of compounds: Accurately weigh the compound and dissolve it in […] of DMSO to prepare a […] of the bulk, which is further diluted as required. • 2) Screening test: Dilute recombinant human cathepsin rhCathepsin C/DPP1 and recombinant human cathepsin rhCathepsin L with an activating buffer solution, and incubate at 37° C. for 60 min. Add 4 μL of test compound to the white well of the 384-well plate. Add 4 μL of the enzyme mixture after incubation to the white wells. Block the 384-well plate and allow to stand at room temperature for 30 min, and add 8 μL of 2-fold diluted Gly-Arg-AMC (hydrochloride). Block the 384-well plate and allow to stand at room temperature for 2 h. Prepare 4× stop solution and add 4 μL stop solution to white wells. Read fluorescence data on the fluorescence meter Victor Nivo35. • 3) Data analysis:
# […] using Prism Graphpad 8.0.
# Chain of rhCathepsin C/DPP1 (P53634 25-134): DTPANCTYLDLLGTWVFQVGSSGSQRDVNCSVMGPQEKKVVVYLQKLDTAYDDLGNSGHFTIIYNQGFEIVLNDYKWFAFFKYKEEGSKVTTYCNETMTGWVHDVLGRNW
# Chain of rhCathepsin C/DPP1 (P53634 231-394): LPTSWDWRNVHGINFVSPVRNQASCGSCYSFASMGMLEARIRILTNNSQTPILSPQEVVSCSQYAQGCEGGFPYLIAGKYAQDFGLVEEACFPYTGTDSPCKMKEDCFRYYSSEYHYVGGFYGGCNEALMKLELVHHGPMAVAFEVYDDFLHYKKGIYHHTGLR
# Chain of rhCathepsin C/DPP1 (P53634 395-463): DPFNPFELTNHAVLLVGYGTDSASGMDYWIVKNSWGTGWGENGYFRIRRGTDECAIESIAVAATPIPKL
row,pIC50,SMILES
1,7.95,C[C@H]1CNC[C@@H](C(=O)N[C@H](C#N)Cc2ccc(-c3ccc4c(c3)N(C)CCC4=O)cc2F)OC1 [Compound D124]
2,8.39,N#C[C@H](Cc1ccc(-c2ccc3oc(=O)n(CF)c3c2)cc1)NC(=O)[C@@H]1CNCCCO1 [Compound D02]
3,8.41,N#C[C@H](Cc1ccc(-c2ccc3oc(=O)n(C(F)F)c3c2)cc1)NC(=O)[C@@H]1CNCCCO1 [Compound D04]
4,8.54,C[C@@H]1OC(=O)c2ccc(-c3ccc(C[C@@H](C#N)NC(=O)[C@@H]4CNCCCO4)c(F)c3)cc21 [Compound D74]
5,9.24,CN1CC(n2c(=O)sc3ccc(-c4ccc(C[C@@H](C#N)NC(=O)[C@@H]5CNCCCO5)c(F)c4)cc32)C1 [Compound D70]
6,8.64,C[C@H]1OC(=O)c2ccc(-c3ccc(C[C@@H](C#N)NC(=O)[C@@H]4CNCCCO4)c(F)c3)cc21 [Compound D75]
7,8.77,Cn1cc(-n2c(=O)oc3ccc(-c4ccc(C[C@@H](C#N)NC(=O)[C@@H]5CNCCCO5)c(F)c4)cc32)cn1 [Compound D63]
8,8.43,N#C[C@H](Cc1ccc(-c2ccc3c(c2)CCC3=O)cc1F)NC(=O)[C@@H]1CNCCCO1 [Compound D60]
9,8.46,CN1CC2(C1)OC(=O)c1ccc(-c3ccc(C[C@@H](C#N)NC(=O)[C@@H]4CNCCCO4)cc3)cc12 [Compound D19]
10,8.10,N#C[C@H](Cc1ccc(-c2ccc3c(c2)C2(COC2)OC3=O)cc1)NC(=O)[C@@H]1CNCCCO1 [Compound D21]
11,8.27,N#C[C@H](Cc1ccc(-c2ccc3c(c2)CCC3=O)cc1)NC(=O)[C@@H]1CNCCCO1 [Compound D09]
12,9.35,Cn1c(=O)oc2ccc(-c3ccc(C[C@@H](C#N)NC(=O)[C@@H]4CNCC5(CC5)CO4)c(F)c3)cc21 [Compound D46]
13,8.49,CC1CNC[C@@H](C(=O)N[C@H](C#N)Cc2ccc(-c3ccc4oc(=O)n(C)c4c3)cc2F)OC1 (stereo partly drawn) [Compound D85]
14,8.17,CN1CCC(=O)c2ccc(-c3ccc(C[C@@H](C#N)NC(=O)[C@@H]4CNCCCO4)cc3)cc21 [Compound D125]

row,SMILES,pIC50
1,N#C[C@H](Cc1ccc(-c2ccc3c(c2)C2(CCN(C4COC4)CC2)OC3=O)cc1F)NC(=O)[C@@H]1CNCCCO1 [Compound D92],9.49
2,C[C@H]1OC(=O)c2ccc(-c3ccc(C[C@@H](C#N)NC(=O)[C@@H]4CNCCCO4)[se]3)cc21 [Compound D126],7.97

# Molecular target: DPP1 (Homo sapiens (Human), UniProt P53634)
# Experiment: DPP1 activity inhibition test on U937 cells
# Type: cell-based
# Conditions: U-937, 5 nM compound, substrate h-Gly-phe-AFC
# Procedure: After incubation at 37° C. for 1 h, add h-Gly-phe-AFC (10 μL) to each well and start reaction.
# Chain of DPP1 (P53634 25-463): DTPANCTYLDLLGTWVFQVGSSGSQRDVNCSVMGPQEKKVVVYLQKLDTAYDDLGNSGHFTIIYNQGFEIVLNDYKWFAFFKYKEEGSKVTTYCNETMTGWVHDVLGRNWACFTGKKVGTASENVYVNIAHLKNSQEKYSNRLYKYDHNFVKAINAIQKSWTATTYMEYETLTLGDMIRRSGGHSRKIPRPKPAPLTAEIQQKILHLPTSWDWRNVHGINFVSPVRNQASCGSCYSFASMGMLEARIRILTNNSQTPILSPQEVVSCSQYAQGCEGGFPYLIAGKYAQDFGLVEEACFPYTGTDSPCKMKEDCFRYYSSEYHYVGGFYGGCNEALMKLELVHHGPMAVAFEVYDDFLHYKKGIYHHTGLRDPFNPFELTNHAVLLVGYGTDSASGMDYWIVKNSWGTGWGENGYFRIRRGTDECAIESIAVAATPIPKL
row,inhibition at 0.005 µM [%],SMILES
1,30 to 75,N#C[C@H](Cc1ccc(-c2ccc3oc(=O)n(CF)c3c2)cc1)NC(=O)[C@@H]1CNCCCO1 [Compound D02]
2,30 to 75,N#C[C@H](Cc1ccc(-c2ccc3oc(=O)n(C(F)F)c3c2)cc1)NC(=O)[C@@H]1CNCCCO1 [Compound D04]
3,30 to 75,C[C@@H]1OC(=O)c2ccc(-c3ccc(C[C@@H](C#N)NC(=O)[C@@H]4CNCCCO4)c(F)c3)cc21 [Compound D74]
4,30 to 75,CN1CC(n2c(=O)sc3ccc(-c4ccc(C[C@@H](C#N)NC(=O)[C@@H]5CNCCCO5)c(F)c4)cc32)C1 [Compound D70]
5,30 to 75,C[C@H]1OC(=O)c2ccc(-c3ccc(C[C@@H](C#N)NC(=O)[C@@H]4CNCCCO4)c(F)c3)cc21 [Compound D75]
6,30 to 75,Cn1cc(-n2c(=O)oc3ccc(-c4ccc(C[C@@H](C#N)NC(=O)[C@@H]5CNCCCO5)c(F)c4)cc32)cn1 [Compound D63]
7,30 to 75,N#C[C@H](Cc1ccc(-c2ccc3c(c2)CCC3=O)cc1F)NC(=O)[C@@H]1CNCCCO1 [Compound D60]
8,30 to 75,CN1CC2(C1)OC(=O)c1ccc(-c3ccc(C[C@@H](C#N)NC(=O)[C@@H]4CNCCCO4)cc3)cc12 [Compound D19]
9,30 to 75,N#C[C@H](Cc1ccc(-c2ccc3c(c2)C2(COC2)OC3=O)cc1)NC(=O)[C@@H]1CNCCCO1 [Compound D21]
10,30 to 75,N#C[C@H](Cc1ccc(-c2ccc3c(c2)CCC3=O)cc1)NC(=O)[C@@H]1CNCCCO1 [Compound D09]
11,30 to 75,Cn1c(=O)oc2ccc(-c3ccc(C[C@@H](C#N)NC(=O)[C@@H]4CNCC5(CC5)CO4)c(F)c3)cc21 [Compound D46]
12,30 to 75,CC1CNC[C@@H](C(=O)N[C@H](C#N)Cc2ccc(-c3ccc4oc(=O)n(C)c4c3)cc2F)OC1 (stereo partly drawn) [Compound D85]
13,< 30,CN(C)CC1OC(=O)c2ccc(-c3ccc(C[C@@H](C#N)NC(=O)[C@@H]4CNCCCO4)c(F)c3)cc21 (stereo partly drawn) [Compound D76]
14,< 30,CN1CCC(n2c(=O)oc3ccc(-c4ccc(C[C@@H](C#N)NC(=O)[C@@H]5CNCCCO5)c(F)c4)cc32)CC1 [Compound D83]
15,< 30,N#C[C@H](Cc1ccc(-c2ccc3c(c2)N2CC(=O)N=C2O3)cc1F)NC(=O)[C@@H]1CNCCCO1 [Compound D81]
16,< 30,N#C[C@H](Cc1ccc(-c2cc3c(cc2F)C(=O)OC3)cc1F)NC(=O)[C@@H]1CNCCCO1 [Compound D79]

row,SMILES,inhibition at 0.005 µM [%]
1,N#C[C@H](Cc1ccc(-c2ccc3c(c2)C2(CCN(C4COC4)CC2)OC3=O)cc1F)NC(=O)[C@@H]1CNCCCO1 [Compound D92],30 to 75
2,CN1CCC2(C=Cc3ccc(-c4ccc(C[C@@H](C#N)NC(=O)[C@@H]5CNCCCO5)c(F)c4)cc32)CC1 [Compound D90],< 30
3,CN1CCC2(CC1)OC(=O)c1ccc(-c3ccc(C[C@@H](C#N)NC(=O)[C@@H]4CNCCCO4)cc3)cc12 [Compound D25],30 to 75
4,N#C[C@H](Cc1ccc(-c2ccc3c(n2)C2(CCN(C4COC4)CC2)OC3=O)cc1)NC(=O)[C@@H]1CNCCCO1 [Compound D28],30 to 75

# Same assay, conditions: U-937, 50 nM compound, substrate h-Gly-phe-AFC
row,inhibition at 0.05 µM [%],SMILES
1,75 to 100,N#C[C@H](Cc1ccc(-c2ccc3oc(=O)n(CF)c3c2)cc1)NC(=O)[C@@H]1CNCCCO1 [Compound D02]
2,75 to 100,N#C[C@H](Cc1ccc(-c2ccc3oc(=O)n(C(F)F)c3c2)cc1)NC(=O)[C@@H]1CNCCCO1 [Compound D04]
3,75 to 100,C[C@@H]1OC(=O)c2ccc(-c3ccc(C[C@@H](C#N)NC(=O)[C@@H]4CNCCCO4)c(F)c3)cc21 [Compound D74]
4,75 to 100,CN1CC(n2c(=O)sc3ccc(-c4ccc(C[C@@H](C#N)NC(=O)[C@@H]5CNCCCO5)c(F)c4)cc32)C1 [Compound D70]
5,75 to 100,C[C@H]1OC(=O)c2ccc(-c3ccc(C[C@@H](C#N)NC(=O)[C@@H]4CNCCCO4)c(F)c3)cc21 [Compound D75]
6,75 to 100,Cn1cc(-n2c(=O)oc3ccc(-c4ccc(C[C@@H](C#N)NC(=O)[C@@H]5CNCCCO5)c(F)c4)cc32)cn1 [Compound D63]
7,75 to 100,N#C[C@H](Cc1ccc(-c2ccc3c(c2)CCC3=O)cc1F)NC(=O)[C@@H]1CNCCCO1 [Compound D60]
8,75 to 100,CN1CC2(C1)OC(=O)c1ccc(-c3ccc(C[C@@H](C#N)NC(=O)[C@@H]4CNCCCO4)cc3)cc12 [Compound D19]
9,75 to 100,N#C[C@H](Cc1ccc(-c2ccc3c(c2)C2(COC2)OC3=O)cc1)NC(=O)[C@@H]1CNCCCO1 [Compound D21]
10,75 to 100,N#C[C@H](Cc1ccc(-c2ccc3c(c2)CCC3=O)cc1)NC(=O)[C@@H]1CNCCCO1 [Compound D09]
11,75 to 100,Cn1c(=O)oc2ccc(-c3ccc(C[C@@H](C#N)NC(=O)[C@@H]4CNCC5(CC5)CO4)c(F)c3)cc21 [Compound D46]
12,75 to 100,CC1CNC[C@@H](C(=O)N[C@H](C#N)Cc2ccc(-c3ccc4oc(=O)n(C)c4c3)cc2F)OC1 (stereo partly drawn) [Compound D85]
13,75 to 100,CN(C)CC1OC(=O)c2ccc(-c3ccc(C[C@@H](C#N)NC(=O)[C@@H]4CNCCCO4)c(F)c3)cc21 (stereo partly drawn) [Compound D76]
14,< 30,CN1CCC(n2c(=O)oc3ccc(-c4ccc(C[C@@H](C#N)NC(=O)[C@@H]5CNCCCO5)c(F)c4)cc32)CC1 [Compound D83]
15,30 to 75,N#C[C@H](Cc1ccc(-c2ccc3c(c2)N2CC(=O)N=C2O3)cc1F)NC(=O)[C@@H]1CNCCCO1 [Compound D81]
16,< 30,N#C[C@H](Cc1ccc(-c2cc3c(cc2F)C(=O)OC3)cc1F)NC(=O)[C@@H]1CNCCCO1 [Compound D79]

row,SMILES,inhibition at 0.05 µM [%]
1,N#C[C@H](Cc1ccc(-c2ccc3c(c2)C2(CCN(C4COC4)CC2)OC3=O)cc1F)NC(=O)[C@@H]1CNCCCO1 [Compound D92],75 to 100
2,CN1CCC2(C=Cc3ccc(-c4ccc(C[C@@H](C#N)NC(=O)[C@@H]5CNCCCO5)c(F)c4)cc32)CC1 [Compound D90],75 to 100
3,CN1CCC2(CC1)OC(=O)c1ccc(-c3ccc(C[C@@H](C#N)NC(=O)[C@@H]4CNCCCO4)cc3)cc12 [Compound D25],75 to 100
4,N#C[C@H](Cc1ccc(-c2ccc3c(n2)C2(CCN(C4COC4)CC2)OC3=O)cc1)NC(=O)[C@@H]1CNCCCO1 [Compound D28],75 to 100

# Same assay, conditions: intracellular enzyme activity, substrate h-Gly-phe-AFC
row,pIC50,SMILES
1,8.24,N#C[C@H](Cc1ccc(-c2ccc3oc(=O)n(CF)c3c2)cc1)NC(=O)[C@@H]1CNCCCO1 [Compound D02]
2,8.28,N#C[C@H](Cc1ccc(-c2ccc3oc(=O)n(C(F)F)c3c2)cc1)NC(=O)[C@@H]1CNCCCO1 [Compound D04]
3,8.10,C[C@@H]1OC(=O)c2ccc(-c3ccc(C[C@@H](C#N)NC(=O)[C@@H]4CNCCCO4)c(F)c3)cc21 [Compound D74]
4,7.88,CN1CC(n2c(=O)sc3ccc(-c4ccc(C[C@@H](C#N)NC(=O)[C@@H]5CNCCCO5)c(F)c4)cc32)C1 [Compound D70]
5,8.42,C[C@H]1OC(=O)c2ccc(-c3ccc(C[C@@H](C#N)NC(=O)[C@@H]4CNCCCO4)c(F)c3)cc21 [Compound D75]
6,8.21,Cn1cc(-n2c(=O)oc3ccc(-c4ccc(C[C@@H](C#N)NC(=O)[C@@H]5CNCCCO5)c(F)c4)cc32)cn1 [Compound D63]
7,8.34,N#C[C@H](Cc1ccc(-c2ccc3c(c2)CCC3=O)cc1F)NC(=O)[C@@H]1CNCCCO1 [Compound D60]
8,7.39,CN1CC2(C1)OC(=O)c1ccc(-c3ccc(C[C@@H](C#N)NC(=O)[C@@H]4CNCCCO4)cc3)cc12 [Compound D19]
9,7.54,N#C[C@H](Cc1ccc(-c2ccc3c(c2)C2(COC2)OC3=O)cc1)NC(=O)[C@@H]1CNCCCO1 [Compound D21]
10,8.00,N#C[C@H](Cc1ccc(-c2ccc3c(c2)CCC3=O)cc1)NC(=O)[C@@H]1CNCCCO1 [Compound D09]
11,8.52,Cn1c(=O)oc2ccc(-c3ccc(C[C@@H](C#N)NC(=O)[C@@H]4CNCC5(CC5)CO4)c(F)c3)cc21 [Compound D46]
12,8.52,CC1CNC[C@@H](C(=O)N[C@H](C#N)Cc2ccc(-c3ccc4oc(=O)n(C)c4c3)cc2F)OC1 (stereo partly drawn) [Compound D85]

row,SMILES,pIC50
1,N#C[C@H](Cc1ccc(-c2ccc3c(c2)C2(CCN(C4COC4)CC2)OC3=O)cc1F)NC(=O)[C@@H]1CNCCCO1 [Compound D92],8.23

# Reference: patent US20250101011A1, “PEPTIDYL NITRILE COMPOUND AND USE THEREOF” (SHANGHAI YIDIAN PHARMACEUTICAL TECHNOLOGY DEVELOPMENT CO., …, priority 2022, published 2025)
